Molecular target: T1, CFTR (Homo sapiens, UniProt P13569)
T1 construct: endogenous in cells; host or cells: T84 human colonic cells (ECACC)
Experiment: T84 assay (FLIPR membrane potential dye, forskolin/IBMX-stimulated CFTR channel activity)
Assay type: cell-based
Details: imidazole and triazole-containing compounds (Tables 13, 14, 14′), read-out: IC50 (μM) (T84 assay)
In short: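 Fluorescence from a membrane potential dye in T84 monolayers (HBSS with 10 mM Hepes) is followed each second for 150 s. Cells are exposed to test compound during the 45 min dye loading, then challenged with forskolin (10 μM) and IBMX (100 μM) to open CFTR. Inhibitors suppress the depolarization-driven fluorescence increase.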

T1 sequence (P13569 whole entry): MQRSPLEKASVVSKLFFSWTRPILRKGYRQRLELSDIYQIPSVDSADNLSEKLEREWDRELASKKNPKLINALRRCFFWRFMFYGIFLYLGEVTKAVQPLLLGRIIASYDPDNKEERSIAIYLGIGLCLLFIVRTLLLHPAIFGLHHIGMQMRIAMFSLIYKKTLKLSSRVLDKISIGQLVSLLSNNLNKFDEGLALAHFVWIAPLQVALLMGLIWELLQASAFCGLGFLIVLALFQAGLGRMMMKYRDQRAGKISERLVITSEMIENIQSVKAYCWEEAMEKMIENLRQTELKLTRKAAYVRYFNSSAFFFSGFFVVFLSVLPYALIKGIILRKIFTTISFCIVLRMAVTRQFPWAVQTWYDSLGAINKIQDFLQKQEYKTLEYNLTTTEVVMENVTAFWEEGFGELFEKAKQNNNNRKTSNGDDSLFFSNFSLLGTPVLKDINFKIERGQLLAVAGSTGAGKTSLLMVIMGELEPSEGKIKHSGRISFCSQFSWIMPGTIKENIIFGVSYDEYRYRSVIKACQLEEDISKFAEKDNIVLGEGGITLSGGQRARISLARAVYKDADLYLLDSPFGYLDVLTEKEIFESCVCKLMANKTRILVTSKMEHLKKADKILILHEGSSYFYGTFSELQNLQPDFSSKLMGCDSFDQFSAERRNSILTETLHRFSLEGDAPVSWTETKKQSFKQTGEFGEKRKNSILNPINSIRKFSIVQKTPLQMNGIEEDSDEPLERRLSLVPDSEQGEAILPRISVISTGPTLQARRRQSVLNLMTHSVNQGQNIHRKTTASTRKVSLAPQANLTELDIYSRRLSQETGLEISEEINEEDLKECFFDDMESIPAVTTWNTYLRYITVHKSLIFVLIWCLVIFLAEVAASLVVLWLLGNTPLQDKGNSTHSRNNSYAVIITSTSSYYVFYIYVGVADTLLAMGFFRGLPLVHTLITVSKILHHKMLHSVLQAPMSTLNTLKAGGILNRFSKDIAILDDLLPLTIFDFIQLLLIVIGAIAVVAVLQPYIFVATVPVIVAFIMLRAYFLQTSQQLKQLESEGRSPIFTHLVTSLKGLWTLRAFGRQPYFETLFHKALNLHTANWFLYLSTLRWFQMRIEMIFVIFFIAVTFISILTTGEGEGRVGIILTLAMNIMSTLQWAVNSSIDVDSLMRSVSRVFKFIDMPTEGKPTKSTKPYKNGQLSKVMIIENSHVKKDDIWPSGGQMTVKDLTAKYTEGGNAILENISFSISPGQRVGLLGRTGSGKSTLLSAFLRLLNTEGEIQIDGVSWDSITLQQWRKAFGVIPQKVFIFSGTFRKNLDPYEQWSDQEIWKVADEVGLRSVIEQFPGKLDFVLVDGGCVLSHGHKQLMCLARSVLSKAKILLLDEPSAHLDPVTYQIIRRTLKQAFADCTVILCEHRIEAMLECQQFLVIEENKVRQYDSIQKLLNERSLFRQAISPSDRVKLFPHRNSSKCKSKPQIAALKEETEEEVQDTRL

**Q.** With `O=C(NCc1ccc(F)c(F)c1)c1ncn(-c2cc(Cl)c(O)c(Cl)c2)n1` [42i, 1-(3,5-dichloro-4-hydroxyphenyl)-N-(3,4-difluorobenzyl)-1H-1,2,4-triazole-3-carboxamide] as the compound, how does the IC50 read?
**A.** 15.9 µM

**Q.** How did the IC50 turn out when `O=C(NCc1cc(F)c(F)c(F)c1)c1ncn(-c2cc(Cl)c(O)c(Cl)c2)n1` [43i, 1-(3,5-dichloro-4-hydroxyphenyl)-N-(3,4,5-trifluorobenzyl)-1H-1,2,4-triazole-3-carboxamide] was run?
**A.** 13.3 µM

**Q.** For `O=C(NCc1ccc(N2CCCCC2)cc1)c1ncn(-c2cc(Cl)c(O)c(Cl)c2)n1` [45i, 1-(3,5-dichloro-4-hydroxyphenyl)-N-(4-(piperidin-1-yl)benzyl)-1H-1,2,4-triazole-3-carboxamide], which IC50 is on record?
**A.** 8.22 µM

**Q.** `O=C(NCc1cccc(-n2cccn2)c1)c1ncn(-c2cc(Cl)c(O)c(Cl)c2)n1` [46i] was tested. Which IC50 did it give?
**A.** 28.6 µM

**Q.** For `O=C(NCc1cccc(Cl)c1)c1ncn(-c2cc(Cl)c(O)c(Cl)c2)n1` [47i, N-(3-chlorobenzyl)-1-(3,5-dichloro-4-hydroxyphenyl)-1H-1,2,4-triazole-3-carboxamide], which IC50 is on record?
**A.** 12.6 µM

**Q.** How did the IC50 turn out when `O=C(NCc1ccc(Cl)cc1)c1ncn(-c2cc(Cl)c(O)c(Cl)c2)n1` [48i, N-(4-chlorobenzyl)-1-(3,5-dichloro-4-hydroxyphenyl)-1H-1,2,4-triazole-3-carboxamide] was run?
**A.** 8.67 µM

**Q.** `O=C(c1ccccc1)C1CCN(C(=O)c2ncn(-c3cc(Cl)c(O)c(Cl)c3)n2)CC1` [61i, (4-benzoylpiperidin-1-yl)(1-(3,5-dichloro-4-hydroxyphenyl)-1H-1,2,4-triazol-3-yl)methanone] was tested. Which IC50 did it give?
**A.** 26.7 µM

**Q.** How did the IC50 turn out when `Cc1noc(C)c1CCNC(=O)c1ncn(-c2cc(Cl)c(O)c(Cl)c2)n1` [74i, 1-(3,5-dichloro-4-hydroxyphenyl)-N-(2-(3,5-dimethylisoxazol-4-yl)ethyl)-1H-1,2,4-triazole-3-carboxamide] was run?
**A.** 1.28 µM

**Q.** With `CC(C)(C)CCN(Cc1cccc(OC(F)(F)F)c1)C(=O)c1ncn(-c2cc(Cl)c(O)c(Cl)c2)n1` [77i, 1-(3,5-dichloro-4-hydroxyphenyl)-N-(3,3-dimethylbutyl)-N-(3-(trifluoromethoxy)benzyl)-1H-1,2,4-triazole-3-carboxamide] as the compound, how does the IC50 read?
**A.** 3.01 µM

**Q.** `CC(C)(C)CCN(Cc1cccc(C(F)(F)F)c1)C(=O)c1ncn(-c2cc(Cl)c(O)c(Cl)c2)n1` [79i, 1-(3,5-dichloro-4-hydroxyphenyl)-N-(3,3-dimethylbutyl)-N-(3-(trifluoromethyl)benzyl)-1H-1,2,4-triazole-3-carboxamide] was tested. Which IC50 did it give?
**A.** 2.23 µM

**Q.** How did the IC50 turn out when `O=C(c1ncn(-c2cc(Cl)c(O)c(Cl)c2)n1)N(Cc1ccccc1)Cc1cccc(OC(F)(F)F)c1` [84i, N-benzyl-1-(3,5-dichloro-4-hydroxyphenyl)-N-(3-(trifluoromethoxy)benzyl)-1H-1,2,4-triazole-3-carboxamide] was run?
**A.** 6.81 µM

**Q.** With `O=C(c1ncn(-c2cc(Cl)c(O)c(Cl)c2)n1)N(Cc1ccccc1)Cc1cccc(C(F)(F)F)c1` [85i, N-benzyl-1-(3,5-dichloro-4-hydroxyphenyl)-N-(3-(trifluoromethyl)benzyl)-1H-1,2,4-triazole-3-carboxamide] as the compound, how does the IC50 read?
**A.** 3.16 µM

Same assay, conditions: oxadiazole-containing compounds (a series), average of at least 2 runs unless annotated n = 1, read-out: IC50

**Q.** With `C=CCN(Cc1cccc(C(F)(F)F)c1)C(=O)c1nc(-c2cc(Br)c(O)c(Br)c2)no1` [59a, N-allyl-3-(3,5-dibromo-4-hydroxyphenyl)-N-(3-(trifluoromethyl)benzyl)-1,2,4-oxadiazole-5-carboxamide] as the compound, how does the IC50 read?
**A.** 3.35 µM

**Q.** For `CCN(Cc1cccc(C(F)(F)F)c1)C(=O)c1nc(-c2cc(Br)c(O)c(Br)c2)no1` [60a, 3-(3,5-Dibromo-4-hydroxyphenyl)-N-ethyl-N-(3-(trifluormethyl)benzyl)-1,2,4-oxadiazole-5-carboxamide], which IC50 is on record?
**A.** 12.6 µM

**Q.** For `CN(Cc1ccccc1)C(=O)c1nc(-c2cc(Cl)c(O)c(Cl)c2)no1` [62a, N-benzyl-3-(3,5-dichloro-4-hydroxyphenyl)-N-methyl-1,2,4-oxadiazole-5-carboxamide], which IC50 is on record?
**A.** 18.6 µM

**Q.** How did the IC50 turn out when `O=C(c1noc(-c2cc(Br)c(O)c(Br)c2)n1)N1CCC(Cc2ccccc2)CC1` [66a, (4-benzylpiperidin-1-yl)(5-(3,5-dibromo-4-hydroxyphenyl)-1,2,4-oxadiazol-3-yl)methanone] was run?
**A.** 11.7 µM

**Q.** For `COC(=O)C1CCN(C(=O)COc2c(Br)cc(-c3noc(C(=O)N4CCC(Cc5ccccc5)CC4)n3)cc2Br)CC1` [68a, methyl 1-(2-(4-(5-(4-benzylpiperidine-1-carbonyl)-1,2,4-oxadiazol-3-yl)-2,6-dibromophenoxy)acetyl)piperidine-4-carboxylate], which IC50 is on record?
**A.** 10.3 µM

**Q.** How did the IC50 turn out when `O=C(COc1c(Br)cc(-c2noc(C(=O)N3CCC(Cc4ccccc4)CC3)n2)cc1Br)N(CCO)CCO` [71a, 2-(4-(5-(4-benzylpiperidine-1-carbonyl)-1,2,4-oxadiazol-3-yl)-2,6-dibromophenoxy)-N,N-bis(2-hydroxyethyl)acetamide] was run?
**A.** 18.9 µM

**Q.** With `O=C(NCc1cccc(C(F)(F)F)c1)c1noc(-c2cc(Cl)c(O)c(Cl)c2)n1` [74a, 5-(3,5-dichloro-4-hydroxyphenyl)-N-(3-(trifluoromethyl)benzyl)-1,2,4-oxadiazole-3-carboxamide] as the compound, how does the IC50 read?
**A.** 2.6 µM

**Q.** How did the IC50 turn out when `O=C(NCc1cccc(OC(F)(F)F)c1)c1noc(-c2cc(Cl)c(O)c(Cl)c2)n1` [75a, 5-(3,5-dichloro-4-hydroxyphenyl)-N-(3-(trifluoromethoxy)benzyl)-1,2,4-oxadiazole-3-carboxamide] was run?
**A.** 2.09 µM

**Q.** How did the IC50 turn out when `O=C(c1noc(-c2cc(Cl)c(O)c(Cl)c2)n1)N1CCC(Cc2ccccc2)CC1` [78a, (4-benzylpiperidin-l-yl)(5-(3,5-dichloro-4-hydroxyphenyl)-1,2,4-oxadiazol-3-yl)methanone] was run?
**A.** 11.2 µM

**Q.** With `O=C(NCc1ccc(Oc2ccccc2)cc1)c1noc(-c2cc(Cl)c(O)c(Cl)c2)n1` [79a, 5-(3,5-dichloro-4-hydroxyphenyl)-N-(4-phenoxybenzyl)-1,2,4-oxadiazole-3-carboxamide] as the compound, how does the IC50 read?
**A.** 17.5 µM

**Q.** How did the IC50 turn out when `O=C(NCc1ccc(F)c(F)c1)c1noc(-c2cc(Cl)c(O)c(Cl)c2)n1` [80a, 5-(3,5-dichloro-4-hydroxyphenyl)-N-(3,4-difluorobenzyl)-1,2,4-oxadiazole-3-carboxamide] was run?
**A.** 8.14 µM

**Q.** For `Cc1ccc(CNC(=O)c2noc(-c3cc(Cl)c(O)c(Cl)c3)n2)cc1` [81a, 5-(3,5-dichloro-4-hydroxyphenyl)-N-(4-methylbenzyl)-1,2,4-oxadiazole-3-carboxamide], which IC50 is on record?
**A.** 14.8 µM

**Q.** Which IC50 does the source give for `O=C(NCc1ccccc1Cl)c1noc(-c2cc(Cl)c(O)c(Cl)c2)n1` [83a, N-(2-chlorobenzyl)-5-(3,5-dichloro-4-hydroxyphenyl)-1,2,4-oxadiazole-3-carboxamide] here?
**A.** 7.28 µM

**Q.** With `CN(Cc1ccc(Cl)cc1)C(=O)c1noc(-c2cc(Cl)c(O)c(Cl)c2)n1` [84a, N-(4-chlorobenzyl)-5-(3,5-dichloro-4-hydroxyphenyl)-N-methyl-1,2,4-oxadiazole-3-carboxamide] as the compound, how does the IC50 read?
**A.** 4.03 µM

**Q.** Which IC50 does the source give for `O=C(NCc1cc(Cl)cc(Cl)c1)c1noc(-c2cc(Cl)c(O)c(Cl)c2)n1` [85a, 5-(3,5-dichloro-4-hydroxyphenyl)-N-(3,5-dichlorobenzyl)-1,2,4-oxadiazole-3-carboxamide] here?
**A.** 2.33 µM

**Q.** How did the IC50 turn out when `O=C(NCc1cccc(Cl)c1)c1noc(-c2cc(Cl)c(O)c(Cl)c2)n1` [86a, N-(3-chlorobenzyl)-5-(3,5-dichloro-4-hydroxyphenyl)-1,2,4-oxadiazole-3-carboxamide] was run?
**A.** 2.12 µM

**Q.** How did the IC50 turn out when `CN(Cc1ccc(C(F)(F)F)cc1)C(=O)c1noc(-c2cc(Cl)c(O)c(Cl)c2)n1` [87a, 5-(3,5-dichloro-4-hydroxyphenyl)-N-methyl-N-(4-(trifluoromethyl)benzyl)-1,2,4-oxadiazole-3-carboxamide] was run?
**A.** 3.42 µM

**Q.** For `O=C(NCc1ccccc1C(F)(F)F)c1noc(-c2cc(Cl)c(O)c(Cl)c2)n1` [88a, 5-(3,5-dichloro-4-hydroxyphenyl)-N-(2-(trifluoromethyl)benzyl)-1,2,4-oxadiazole-3-carboxamide], which IC50 is on record?
**A.** 6.2 µM

**Q.** `O=C(c1nc(-c2cc(Cl)c(O)c(Cl)c2)no1)N(Cc1cccnc1)Cc1cccc(C(F)(F)F)c1` [89a, 3-(3,5-dichloro-4-hydroxyphenyl)-N-(pyridin-3-ylmethyl)-N-(3-(trifluoromethyl)benzyl)-1,2,4-oxadiazole-5-carboxamide] was tested. Which IC50 did it give?
**A.** 2.52 µM

**Q.** For `O=C(CN(Cc1cccc(C(F)(F)F)c1)C(=O)c1nc(-c2cc(Cl)c(O)c(Cl)c2)no1)c1ccccc1` [90a, 3-(3,5-dichloro-4-hydroxyphenyl)-N-(2-oxo-2-phenylethyl)-N-(3-(trifluoromethyl)benzyl)-1,2,4-oxadiazole-5-carboxamide], which IC50 is on record?
**A.** 8.38 µM

**Q.** Which IC50 does the source give for `CC(C)(C)C(=O)CN(Cc1cccc(C(F)(F)F)c1)C(=O)c1nc(-c2cc(Cl)c(O)c(Cl)c2)no1` [91a, 3-(3,5-dichloro-4-hydroxyphenyl)-N-(3,3-dimethyl-2-oxobutyl)-N-(3-(trifluoromethyl)benzyl)-1,2,4-oxadiazole-5-carboxamide] here?
**A.** 2.15 µM

**Q.** `CC(C)(C)C(=O)N1CCN(C(=O)c2nc(-c3cc(Br)c(O)c(Br)c3)no2)CC1` [93a, 1-(4-(3-(3,5-dibromo-4-hydroxyphenyl)-1,2,4-oxadiazole-5-carbonyl)piperazin-1-yl)-2,2-dimethylpropan-1-one] was tested. Which IC50 did it give?
**A.** 5.8 µM

**Q.** Which IC50 does the source give for `CC#CCN(Cc1cccc(C(F)(F)F)c1)C(=O)c1nc(-c2cc(Cl)c(O)c(Cl)c2)no1` [98a, N-(but-2-ynyl)-3-(3,5-dichloro-4-hydroxyphenyl)-N-(3-(trifluoromethyl)benzyl)-1,2,4-oxadiazole-5-carboxamide] here?
**A.** 2.86 µM

Same assay, conditions: triazine-containing compounds (Table 8 and 8′), read-out: IC50

**Q.** `Oc1c(Br)cc(-c2cnc(OCc3cccc(OCc4ccccc4)c3)nn2)cc1Br` [89e, 4-(3-(3-(benzyloxy)benzyloxy)-1,2,4-triazin-6-yl)-2,6-dibromophenol] was tested. Which IC50 did it give?
**A.** 1.47 µM

Same assay, conditions: triazole-containing compounds (c series), average of at least 2 runs unless annotated n = 1, read-out: IC50

**Q.** `CN(Cc1cccc(C(F)(F)F)c1)C(=O)c1n[nH]c(-c2cc(Cl)c(O)c(Cl)c2)n1` [90c, 5-(3,5-dichloro-4-hydroxyphenyl)-N-methyl-N-(3-(trifluoromethyl)benzyl)-1H-1,2,4-triazole-3-carboxamide] was tested. Which IC50 did it give?
**A.** 24.1 µM

Source: patent US20100144733A1, “Compounds, compositions and methods comprising heteroaromatic derivatives” (Institute for OneWorld Health, priority 2008, published 2010)
